Values quoted from earlier work, collected in US20090247593A1, “N-THIAZOL-2-YL-BENZAMIDE DERIVATIVES” (H. Lundbeck A/S, priority 2003, published 2009).
Where two headings read alike, the source gives them in different places.

Experiments:
[1] = system: mice; settings: for total immobility time: mouse tail suspension test
[2] = system: unilateral 6-OHDA lesioned mice and rats; settings: elicited by a subthreshold dose of levodopa
[3] = system: mice; settings: mouse forced swimming test
[4] = system: MPTP treated mice and 6-OHDA-lesioned rats
[5] = system: non-human primates treated with MPTP
[6] = mice previously screened for having high immobility time

Question: Which results are given for `Nc1nc2c(cnn2CCc2ccccc2)c2nc(-c3ccco3)nn12` [SCH58261, 2-(2-furanyl)-7-(2-phenylethyl)-7H-pyrazolo[4,3-e][1,2,4]triazolo[1,5-c]pyrimidin-5-amine]?
Answer: immobility [1, 6]: reduce immobility; immobility ([1]; mice selectively bred for their helplessness): reduced immobility; total immobility time [1]: reduced the total immobility time; contralateral rotations [2]: enhance contralateral rotations

Question: Which immobility time [3] does the source give for `Nc1nc(Cl)nc2c1ncn2[C@@H]1O[C@H](CO)[C@@H](O)[C@H]1O` [2-chloroadenosine] here?
Answer: increased immobility time

Question: For `Nc1ncnc2c1ncn2[C@@H]1O[C@H](CO)[C@@H](O)[C@H]1O` [adenosine], which immobility time [3] is on record?
Answer: increased immobility time

Question: With `CCn1c(=O)c2c(nc(/C=C/c3ccc(OC)c(OC)c3)n2C)n(CC)c1=O` [KW-6002, 8-[(1E)-2-(3,4-dimethoxyphenyl)ethenyl]-1,3-diethyl-3,7-dihydro-7-methyl-1H-purine-2,6-dione] as the compound, how does the total immobility time [1] read?
Answer: reduced the total immobility time

Question: What about the “functional loss of dopaminergic nerve terminals in the striatum” value [4] of the same compound?
Answer: prevented functional loss of dopaminergic nerve terminals in the striatum

Question: And the “gliosis normally induced around degenerating neurons” value [4]?
Answer: prevented gliosis

Question: What about the contralateral rotations [2] of the same compound?
Answer: enhance contralateral rotations

Question: And the motor impairment ([5]; induced in non-human primates by MPTP)?
Answer: significantly improves motor impairment

Question: What about the dyskinesias ([5]; non-human primates, MPTP) of the same compound?
Answer: without causing dyskinesias

Question: Which immobility [1, 6] does the source give for `Nc1nc(NCCc2ccc(O)cc2)nc2nc(-c3ccco3)nn12` [ZM241385, 4-(2-[7-amino-2-(2-furyl) [1,2,4]triazolo[2,3-a][1,3,5]triazin-5-ylamino]-ethyl)phenol] here?
Answer: reduce immobility
